# Source: patent US4493845A, “Antibiotic AM-3603” (Kitasato Kenkyusho, priority 1980, dated 1985)
# Where two headings read alike, the source gives them in different places.
# Tests used:
# Assay type in all cases: cell-based
# [1] = system: Sclerotinia cinerea; experiment: Comparison of anti-phytopathogenic activity, MIC; conditions: Glucosepotato agar, 2-3 days
# [2] = system: Botrytis cinerea; experiment: Comparison of anti-phytopathogenic activity, MIC; conditions: Glucosepotato agar, 2-3 days
# [3] = system: Piricularia oryzae; experiment: microbe, parasite or virus in culture; conditions: Glucosepotato agar, 2-3 days
# [4] = system: Pellicularia sasakii; experiment: Comparison of anti-phytopathogenic activity, MIC
# [5] = system: Alternaria kikuchiana; experiment: Comparison of anti-phytopathogenic activity, MIC; conditions: Glucosepotato agar, 2-3 days
# [6] = B, laboratory stock culture, Glucosepotato agar, 2-3 days
# [7] = A, isolate from infected plant, Glucosepotato agar, 2-3 days
Molecule,"MIC ([1]; Sclerotinia, A, isolate from infected plant) [µg/mL]","MIC ([1]; Sclerotinia, B, laboratory stock culture) [µg/mL]","MIC ([2]; Botrytis cinerea, A, isolate from infected plant) [µg/mL]","MIC ([2]; Botrytis cinerea, B, laboratory stock culture) [µg/mL]","MIC ([3]; A, isolate from infected plant) [µg/mL]","MIC ([3]; B, laboratory stock culture) [µg/mL]",MIC [4] [µg/mL],"MIC [4, 6] [µg/mL]","MIC ([5]; Alternaria kikuchiana, A, isolate from infected plant) [µg/mL]","MIC ([5]; Alternaria kikuchiana, B, laboratory stock culture) [µg/mL]","MIC ([1]; A, isolate from infected plant) [µg/mL]","MIC ([1]; B, laboratory stock culture) [µg/mL]","MIC ([2]; A, isolate from infected plant) [µg/mL]","MIC ([2]; B, laboratory stock culture) [µg/mL]","MIC [4, 7] [µg/mL]","MIC ([5]; A, isolate from infected plant) [µg/mL]","MIC ([5]; B, laboratory stock culture) [µg/mL]"
CN(CCC(N)CC(=O)NC1C=CC(n2ccc(N)nc2=O)OC1C(=O)O)C(=N)N (stereo not shown) [Blasticidin S],50,25,50,100,> 100,25,> 100,> 100,50,12.5,–,–,–,–,–,–,–
C[C@@H](N)C(=O)N[C@H]1CO[C@H](O)[C@H](N)[C@H]1O [Prumycin],–,–,–,–,> 100,100,–,> 100,–,–,1.56,6.25,100,50,> 100,> 100,50
Venturicidin,–,–,–,–,< 0.03,< 0.03,–,> 25,–,–,0.78,0.78,–,> 25,1.56,–,> 25
